From article PMC7129073 (Clinical Microbiology and Infection, 2015)
Values after ≈ are worked out from the molar mass of the structure shown. Where two headings read alike, the source gives them in different places.

What was measured:
[1] = system: Escherichia coli
[2] = system: CA-MRSA; experiment: MIC, MBC; type: cell-based, Staphylococcus aureus; conditions: time kill, two strains
[3] = system: viridans group streptococci (VGS); experiment: MIC; type: cell-based
[4] = system: enterococci; experiment: Disk diffusion and E-test, faecal isolates of cancer patients; type: cell-based, Enterococcus; conditions: 38 strains
[5] = system: methicillin susceptible Staphylococcus aureus; experiment: NCCLS agar dilution MIC; type: cell-based; conditions: n = 41
[6] = system: MDR-MRSA; experiment: MIC, MBC; type: cell-based, Staphylococcus aureus; conditions: time kill, two strains
[7] = system: methicillin resistant Staphylococcus aureus; experiment: NCCLS agar dilution MIC; type: cell-based; conditions: n = 53
[8] = system: glycopeptide intermediate Staphylococcus species (GISS); experiment: VITEK II, screening plate and E test, blood isolates; type: cell-based, coagulase-negative Staphylococci
[9] = system: Pseudomonas aeruginosa; experiment: MIC, strains from cystic fibrosis patients; conditions: by MIC
[10] = system: P. aeruginosa; experiment: Disk diffusion, urine isolates of BPH patients
[11] = system: E. coli (Ec); experiment: E-test, recurrent UTI isolates of children; type: cell-based, Escherichia coli
[12] = system: group A beta-haemolytic streptococcal (GABHS) pharyngitis; experiment: Phase III trial, GABHS pharyngitis/tonsillitis; type: in vivo, human
[13] = system: H. influenzae; experiment: Disk diffusion, sputum isolates Athens 2001–2004; type: cell-based, Haemophilus influenzae
[14] = system: S. pneumoniae; experiment: MIC of invasive strains, Saint George Hospital 2001–2004; type: cell-based, Streptococcus pneumoniae
[15] = system: Nocardia spp.; experiment: E-test on Mueller Hinton agar, 81 clinical isolates; type: cell-based
[16] = system: E. coli; experiment: Disk diffusion, urine isolates of BPH patients; conditions: strains isolated after operative intervention
[17] = system: MSSA; experiment: Agar dilution MIC; type: cell-based, Staphylococcus aureus
[18] = system: biofilms of S. aureus (SA204 and SA195) and S. epidermidis (ATCC35983 and ATCC35984); experiment: Antibiotic lock, in vitro biofilm on polyurethane film, viable counts; type: cell-based, Staphylococcus species; conditions: any of the time intervals examined
[19] = system: Shigella spp.; experiment: Disk diffusion, stool isolates Tehran; type: cell-based; conditions: 96 isolates
[20] = system: Salmonella spp.; experiment: Agar dilution susceptibility, gastroenteritis isolates Cuba; type: cell-based; conditions: 34 strains, 2002
[21] = system: N.gonorrhoeae; experiment: microbe, parasite or virus in culture; type: cell-based; conditions: Neisseria gonorrhoeae
[22] = system: Salmonella, other 49 serotypes; experiment: Disk diffusion, food isolates Spain; type: cell-based; conditions: n = 115
[23] = system: Salmonella serotype Typhimurium; experiment: Disk diffusion, food isolates Spain; type: cell-based; conditions: n = 53
[24] = system: Salmonella serotype Enteritidis; experiment: Disk diffusion, food isolates Spain; type: cell-based; conditions: n = 96

## COc1cc(Cc2cnc(N)nc2N)cc(OC)c1OC [trimethoprim]
[1]; 1993, E.coli resistant to ampicillin
  resistance: 28%
[1]; 1993, E.coli sensitive to ampicillin
  resistance: 3%
[1]; 2003, E.coli resistant to ampicillin
  resistance: 43%
[1]; 2003, E.coli sensitive to ampicillin
  resistance: 4%

## teicoplanin
[2]
  Δ Log10 CFU/ml: −1.86 Log10 CFU/ml
[3]; 83 isolates, tolerance to VA and TP
  tolerant isolates: 77.6%
[3]; 107 strains, 1990–2003
  MIC50: 0.06 µg/mL
  MIC90: 0.12 µg/mL
[3]; NCCLS
  susceptibility of all isolates: All isolates were susceptible
[4]
  sensitivity of all isolated strains: All the isolated strains were sensitive
[5]
  MIC50: 1 µg/mL
  MIC90: 1 µg/mL
  MIC range: 0.25 to 2 µg/mL
[6]
  Δ Log10 CFU/ml: −3.82 Log10 CFU/ml
[7]
  MIC50: 1 µg/mL
  MIC90: 2 µg/mL
  MIC range: 0.5 to 8 µg/mL
[8]; 26 strains
  MIC of resistant strains: 32 to 256 µg/mL
[8]; 47 strains
  MIC of intermediate sensitive strains: 16 µg/mL

## colistin methanesulfonate
[9]
  Susceptible isolates: 98%

## CC1(C)S[C@@H]2[C@H](NC(=O)[C@H](NC(=O)N3CCNC3=O)c3ccccc3)C(=O)N2[C@H]1C(=O)O [azlocillin]
[10]
  resistance: 73.3%

## Cc1cc(NS(=O)(=O)c2ccc(N)cc2)no1 [Sulfa, sulfamethoxazol]
[11]; 3 isolates
  MIC of sensitive isolates carrying sulI and sulII: 8 µg/mL
[11]; 6 strains
  MIC of sensitive strains without the three genes: 12 to 32 µg/mL
[11]; 20 out of 29
  resistant isolates: 65.5%

## CC[C@H]1OC(=O)[C@H](C)[C@@H](O[C@H]2C[C@@](C)(OC)[C@@H](O)[C@H](C)O2)[C@H](C)[C@@H](O[C@@H]2O[C@H](C)C[C@H](N(C)C)[C@H]2O)[C@](C)(O)C[C@@H](C)CN(C)[C@H](C)[C@@H](O)[C@]1(C)O [3-day azithromycin, azithromycin]
[12]; BPP population, single 2.0 g dose vs 500 mg QD for 3 days
  bacteriologic eradication at TOC (Day 24–28): 81.4%
[12]; TOC
  clinical cure: 96.7%
[12]; in vivo
  bacteriologic recurrence at long-term follow up (Day 38–45): 7.7%
[12]; most frequent adverse event
  diarrhoea/loose stools: 11%

## amoxicillin/clavulanate
[13]; 2001–2002
  resistance rate: 0%
[13]; 2003–2004
  resistance rate: 4.6%
[14]
  % S: 100%
  %R: 0%
[15]
  MIC50: 2 µg/mL
  MIC90: 8 µg/mL
[16]
  resistance: 93.1%

## Cc1nnc(SCC2=C(C(=O)O)N3C(=O)[C@@H](NC(=O)Cn4cnnn4)[C@H]3SC2)s1 [cefazolin]
[17]; Staphylococcus aureus, MSSA
  MIC50: < 0.5 µg/mL
  MIC90: < 1 µg/mL
[17]; n = 200
  MIC range: 250 to 1000 µg/mL
[18]
  significant biofilm killing: not achieved
[19]
  sensitive: 80%

## CN[C@@H]1[C@H](O)[C@H](NC)[C@H]2O[C@@]3(O)C(=O)C[C@@H](C)O[C@H]3O[C@@H]2[C@H]1O [spectinomycin]
[20]
  resistance: 50%
[21]
  MIC: 16 µg/mL (≈ 48.1 µM)
[21]; strain 76mu6
  MIC: 16 µg/mL (≈ 48.1 µM)
[21]; strain 76mu10
  MIC: 8 µg/mL (≈ 24.1 µM)
[21]; strain 92mu6
  MIC: 8 µg/mL (≈ 24.1 µM)
[21]; strain 92mu13
  MIC: 4 µg/mL (≈ 12 µM)
[22]
  resistance rate (NCCLS M100-S13): 100%
[23]
  resistance rate (NCCLS M100-S13): 87%
[24]
  resistance rate (NCCLS M100-S13): 99%
